Assay results: publication PMC8373216, “Development and Preclinical Evaluation of New Inhaled Lipoglycopeptides for the Treatment of Persistent Pulmonary Methicillin-Resistant Staphylococcus aureus Infections” (Antimicrobial Agents and Chemotherapy, 2021)
Values after ≈ are worked out from the molar mass of the structure shown. Where two headings read alike, the source gives them in different places.

Tests used:
[1] = tested on: Peptostreptococcus anaerobius; experiment: Expanded panel broth microdilution MIC; format: cell-based
[2] = Single-dose nebulized nose-only inhalation PK in healthy rats; format: in vivo, rat; conditions: rat, in vivo
Description: Rats were acclimated in the study facility for approximately 1 week prior to study start. Ten or eleven rats per cohort were loaded into the chamber at the time of dosing. […] An additional airflow set to 6 liters/min was admixed with the nebulizer output to further direct the test articles to the animals. […] The remaining port on the chamber was fit with an aerosol sampling filter for dose determination over a 5 min sampling period. The average dose delivered to the nose of each animal was calculated using an algorithm that was previously described ([49]). […] Animals were euthanized for collection of whole lungs and plasma at time points ranging from immediate postdose (IPD; approximately 30 min after dosing for nebulization) to 168 h postdose (7 days). Drugs were extracted from tissues using customized protein precipitation methods with an appropriate internal standard for each compound and transferred for analysis by LC-MS/MS (Sciex API4500 or API6500+ mass spectrometer [Sciex, Framingham, MA]). GraphPad Prism (La Jolla, CA) was used for statistical analyses and data plotting. […] The data were applied to a noncompartmental analysis after extravascular dosing input and fit to a linear up/log down model. Statistical analysis of in vitro intracellular and biofilm activity was based on a two-way ANOVA with a Bonferroni post test. In vivo statistical analysis was based on the Kolmogorov-Smirnov test.

[3] = tested on: Streptococcus constellatus; experiment: Expanded panel broth microdilution MIC; format: cell-based
[4] = tested on: MRSA ATCC BAA 1556 (USA300) biofilm; experiment: Static MRSA biofilm killing, plastic microtiter plate, MEM
Clostridioides difficile = experiment: Expanded panel broth microdilution MIC; format: cell-based
[5] = tested on: MRSA (ATCC BAA 1556; USA300); experiment: Acute pulmonary MRSA infection in neutropenic rats, nebulized nose-only inhalation; format: in vivo, Staphylococcus aureus; conditions: inhaled at 24 and 32 h postinfection, lungs at 48 h, RV40 14.4 mg/kg, RV94 18.8 mg/kg delivered
Description: Rats were rendered neutropenic with intraperitoneal (i.p.) cyclophosphamide on day −4 (150 mg/kg) and day −1 (100 mg/kg) relative to the challenge. On day 0 at 0 h, rats were challenged with MRSA via intranasal instillation at a target titer of 8.0 to 8.3 log10 CFU. At 24 and 32 h postchallenge, rats were loaded into a 12-port inhalation dosing tower, where they received nebulized drug or vehicle control treatments by nose-only inhalation. Animals were euthanized at 48 h postinfection for enumeration of lung MRSA titer. MRSA lung titer of test article treatments versus control is plotted for three separate experiments. […] Statistics are based on the Kolmogorov-Smirnov test for drug treatment versus control (RV94, P = 0.01). LOD = 2.1 log10 CFU/lungset.
Male Sprague Dawley rats (Envigo, Indianapolis, IN) weighing between 225 and 250 g were used in these studies. Rats were housed and acclimated to the study facility as described in the PK methods section. Rats were rendered neutropenic through a series of intraperitoneal cyclophosphamide (Sigma-Aldrich) injections on day −4 (150 mg/kg) and day −1 (100 mg/kg) relative to the challenge. On day 0 at 0 h, rats were challenged with MRSA ATCC BAA 1556 via intranasal instillation at a target titer of 8.0 to 8.3 log10 CFU using optical density and back-counting inoculum CFU. To prepare the inoculum, a frozen aliquot of the organism stored at −80°C was thawed, transferred into TSB, and incubated at 37°C while shaking for 16 h. Cultures were then centrifuged at 2,000 × g for 5 min, and the resulting pellet was resuspended in PBS and equilibrated. For the challenge procedure, rats were first anesthetized through use of 2 to 5% isoflurane in 100% oxygen, then restrained with a scruff grip and a total of 200 μl of inoculum was quickly introduced to one nare. The rat was held in a vertical position until the challenge was fully inhaled. Rats were monitored following challenge to ensure that normal respiration was achieved and then returned to their cage. […] At necropsy, whole lungs were aseptically removed and lung weights were recorded. […]

[6] = tested on: Streptococcus dysgalactiae; experiment: Expanded panel broth microdilution MIC/MBC; format: cell-based; conditions: for MIC: Streptococcus dysgalactiae
[7] = tested on: Staphylococcus haemolyticus; experiment: Expanded panel broth microdilution MIC; format: cell-based
Enterococcus faecium = experiment: Expanded panel broth microdilution MIC/MBC; format: cell-based; conditions: for MIC: Enterococcus faecium, read-out: MIC
Enterococcus faecalis = experiment: Expanded panel broth microdilution MIC/MBC; format: cell-based
Streptococcus pneumoniae = experiment: Expanded panel broth microdilution MIC/MBC; format: cell-based
[8] = male, Sprague Dawley, inhaled or intranasal

CCCCCCCCCCNCCN[C@@]1(C)C[C@H](O[C@H]2[C@H](Oc3c4cc5cc3Oc3ccc(cc3Cl)[C@@H](O)[C@@H](NC(=O)[C@@H](CC(C)C)NC)C(=O)N[C@@H](CC(N)=O)C(=O)N[C@H]5C(=O)N[C@H]3C(=O)N[C@H](C(=O)N[C@H](C(=O)O)c5cc(O)cc(O)c5-c5cc3ccc5O)[C@H](O)c3ccc(c(Cl)c3)O4)O[C@H](CO)[C@@H](O)[C@@H]2O)O[C@@H](C)[C@H]1O [RV40, N-decylaminoethylvancomycin]
MIC ([1]; ATCC27337, P. anaerobius ATCC 27337, read-out: MIC): 0.008 µg/mL (≈ 4.9 nM) | MIC ([1]; P. anaerobius, 1 isolate, read-out: MIC): 0.008 µg/mL (≈ 4.9 nM) | Pulmonary dose ([2]; male, Sprague Dawley): 0.30 mg/kg | Drug lung level at 120 h ([2]; male, Sprague Dawley, 120 h): 105% | Kp [2, 8]: 690 | Lung AUC0-∞ [2, 8]: 9800 µg·h/g | Lung Cmax [2, 8]: 48 µg/g | Plasma Cmax [2, 8]: 100 ng/mL | Elimination from the lung [2]: not measurably eliminated from the lung | MIC ([3]; S. constellatus AGS, 1 isolate): 0.008 µg/mL (≈ 4.9 nM) | MIC ([3]; Streptococcus constellatus, S. constellatus (AGS) MMX 5677, read-out: MIC): 0.008 µg/mL (≈ 4.9 nM) | Reduction in MRSA biofilm titer versus control ([4]; doses 1 to 10 μg/ml): ~3 log10 CFU/ml | Concentrations with statistically significant reduction versus control biofilm ([4]; two-way ANOVA, Bonferroni): ≥ 1.25 µg/mL | MIC (Clostridioides difficile; ATCCBAA1805, C. difficile ATCC BAA-1805, ribo 027, read-out: MIC): 0.06 µg/mL (≈ 36.8 nM) | MIC (Clostridioides difficile; ATCCBAA1870, C. difficile ATCC BAA-1870, NAP1;ribo 027, read-out: MIC): 0.12 µg/mL (≈ 73.5 nM) | MIC (Clostridioides difficile; C. difficile ATTC 700057, toxAB-, read-out: MIC): 0.06 µg/mL (≈ 36.8 nM) | MIC (Clostridioides difficile; C. difficile NAP1;ribo 027, 1 isolate, read-out: MIC): 0.12 µg/mL (≈ 73.5 nM) | MIC (Clostridioides difficile; C. difficile ribo 027, 1 isolate, read-out: MIC): 0.06 µg/mL (≈ 36.8 nM) | MIC (Clostridioides difficile; C. difficile toxAB-, 1 isolate, read-out: MIC): 0.06 µg/mL (≈ 36.8 nM) | Average reduction in lung MRSA titer versus vehicle control [5]: 0.8 log10 CFU | MIC:MBC ([6]; S. dysgalactiae, MBC on one organism): 1 | MIC ([6]; S. dysgalactiae MMX 5121, read-out: MIC): 0.008 µg/mL (≈ 4.9 nM) | MIC ([6]; S. dysgalactiae MMX 5123, read-out: MIC): 0.12 µg/mL (≈ 73.5 nM) | MIC ([6]; S. dysgalactiae MMX 5124, read-out: MIC): 0.015 µg/mL (≈ 9.19 nM) | MIC ([6]; S. dysgalactiae, 3 isolates, read-out: MIC (median)): 0.015 µg/mL (≈ 9.19 nM) | MIC ([7]; ATCC29970, S. haemolyticus ATCC 29970, read-out: MIC): 0.015 µg/mL (≈ 9.19 nM) | MIC ([7]; S. haemolyticus, 1 isolate, read-out: MIC): 0.015 µg/mL (≈ 9.19 nM) | MIC:MBC (Enterococcus faecium; E. faecium VanA VRE): >4 | MIC:MBC (Enterococcus faecium; E. faecium VanB VRE): >8 | MIC (Enterococcus faecium; E. faecium MMX 4204, VSE): 0.004 µg/mL (≈ 2.45 nM) | MIC (Enterococcus faecium; E. faecium VSE, 1 isolate): 0.004 µg/mL (≈ 2.45 nM) | MIC (Enterococcus faecium; VRE, E. faecium MMX 173, VanB VRE): 0.008 µg/mL (≈ 4.9 nM) | MIC (Enterococcus faecium; VRE, E. faecium MMX 851, VanA VRE): 1 µg/mL (≈ 613 nM) | MIC (Enterococcus faecium; VRE, E. faecium VanA VRE, 1 isolate): 1 µg/mL (≈ 613 nM) | MIC (Enterococcus faecium; VRE, E. faecium VanB VRE, 1 isolate): 0.008 µg/mL (≈ 4.9 nM) | MIC:MBC (Enterococcus faecalis; E. faecalis VSE, MBC on one organism): >8 | MIC:MBC (Enterococcus faecalis; E. faecalis VanA VRE): 8 | MIC (Enterococcus faecalis; E. faecalis VanA VRE, 1 isolate): 0.5 µg/mL (≈ 306 nM) | MIC (Enterococcus faecalis; Enterococcus faecalis, ATCC29212, E. faecalis ATCC 29212, VSE, read-out: MIC): 0.015 µg/mL (≈ 9.19 nM) | MIC (Enterococcus faecalis; Enterococcus faecalis, E. faecalis MMX 1086, VanA VRE, read-out: MIC): 0.5 µg/mL (≈ 306 nM) | MIC (Enterococcus faecalis; Enterococcus faecalis, E. faecalis MMX 4176, VSE, read-out: MIC): 0.03 µg/mL (≈ 18.4 nM) | MIC (Enterococcus faecalis; Enterococcus faecalis, E. faecalis VSE, 2 isolates, read-out: MIC (median)): 0.023 µg/mL (≈ 14.1 nM) | MIC:MBC (Streptococcus pneumoniae; S. pneumoniae PISP, MBC on one organism): 1 | MIC (Streptococcus pneumoniae; S. pneumoniae PRSP, 1 isolate): ≤0.008 µg/mL | MIC (Streptococcus pneumoniae; Streptococcus pneumoniae, ATCC49619, S. pneumoniae ATCC 49619, PISP, read-out: MIC): 0.004 µg/mL (≈ 2.45 nM) | MIC (Streptococcus pneumoniae; Streptococcus pneumoniae, S. pneumoniae MMX 432, PRSP, read-out: MIC): ≤ 0.008 µg/mL | MIC (Streptococcus pneumoniae; Streptococcus pneumoniae, S. pneumoniae MMX 747, PISP, read-out: MIC): 0.004 µg/mL (≈ 2.45 nM) | MIC (Streptococcus pneumoniae; Streptococcus pneumoniae, S. pneumoniae PISP, 2 isolates, read-out: MIC (median)): 0.004 µg/mL (≈ 2.45 nM)
